Data taken from patent publication US20250296942A1, “Phosphonate-Based Coordination Complexes and Methods of Preparation and Use Thereof” (University of Puerto Rico, priority 2021, published 2025).

Columns and labels:
[1] = Dissolution of ZOLE and ZOLE-based BPCCs in PBS (UV-Vis 208 nm); type: physicochemical
Method: Rate measurements were recorded for the reagent grade ZOLE, ZOLE-Ca forms I and II, ZOLE-Mg forms I and II, ZOLE-Zn forms I and II in PBS, against a reagent blank. […] Absorbance measurements were performed on an Agilent Technologies Cary Series UV-Vis Spectrophotometer, Cary 100 UV-Vis model; using the UV Cary Scan software version v.20.0.470. All measurements were performed with a 400-200 nm scan.
Dissolution of ZOLE-based BPCCs was compared to that of ZOLE (active ingredient of Reclast@), to assess the structural stability of these materials in PBS and FaSSGF.
(§4) Dissolution assays employed a maximum concentration of 0.05 mg/mL of ZOLE, which corresponded to the clinically utilized dosage of these BP.

[2] = Dissolution of ZOLE and ZOLE-Ca form II in FaSSGF; type: physicochemical
Method: For ZOLE and ZOLE-Ca form II, dissolution measurements were performed in fasted-state simulated gastric fluid (FaSSGF). […] Absorbance measurements were performed on an Agilent Technologies Cary Series UV-Vis Spectrophotometer, Cary 100 UV-Vis model; using the UV Cary Scan software version v.20.0.470. All measurements were performed with a 400-200 nm scan.
as §4
To further investigate if the ZOLE-based BPCCs presented pH-dependent degradation, dissolution of ZOLE-Ca Form II in FaSSGF was performed.

[3] = Hydroxyapatite (HA) binding assay of ZOLE and nano-Ca@ZOLE
Method: Hydroxyapatite (HA) binding assay: For the binding assay of nano-Ca@ZOLE, 20 mg of hydroxyapatite (HA) were exposed to 3 mL of a nano-Ca@ZOLE in PBS solution (0.5 mg/mL), for 0-11 days at 37° C. As control groups, nano-Ca@ZOLE and HA, both in PBS, were employed. As a comparative method, the binding assay for ZOLE “as received” was performed employing the same parameters as for the nanocrystals. For the experimental groups (HA-nano-Ca@ZOLE and HA-ZOLE), collection was performed in duplicate. Samples were collected each day for 11 consecutive days. After each time point, supernatant was collected and centrifuged (1,500 rpm, 8 min). Absorbance measurements were performed at 208 nm (λmax) to determine the percentage of ZOLE and nano-Ca@ZOLE bound to HA. Solid samples of HA, HA-ZOLE, and HA-nano-Ca@ZOLE were characterized by EDS.
The ability of nano-Ca@ZOLE to bind under simulated physiological conditions to the main constituent of the bone microenvironment, hydroxyapatite (HA), was probed through a binding assay. The binding to HA was determined by monitoring the decrease in the ZOLE concentration of the supernatant using absorption measurements (λmax=208 nm).

[4] = test system: human breast cancer MDA-MB-231 cell line; experiment: AlamarBlue cytotoxicity, ZOLE and nano-Ca@ZOLE, MDA-MB-231; type: cell-based; conditions: for IC50: Homo sapiens
Method: (§1) Cell culture methods: The MDA-MB-231 cell line was cultured in DMEM, 1% Pen-Strep, and 10% FBS at 37° C. in 5% CO2. The hFOB 1.19 cell line was cultured in 1:1 DMEM:F-12, 0.3 mg/mL G418, and 10% FBS at 34° C. in 5% CO2. Cell passages were performed weekly at 80% of cell confluency, and media was exchanged twice a week.
(§2) Cell treatments: Both cell lines were treated with ZOLE (control) and nano-Ca@ZOLE (experimental). First, to determine the half-maximal inhibitory concentration (IC50) two-fold serial dilutions of ZOLE (0-200 μM) were prepared. Both cell lines (MDA-MB-231 and hFOB 1.19) were seeded in 96 well plates at 2.5×10^5 cell/mL. The cells were incubated for 24 h at 37° C. (MDA-MB-231) and 34° C. (hFOB 1.19), respectively. After an initial incubation period, both cell lines were treated with 100 μL of the ZOLE solutions previously prepared, and incubation was performed for 24, 48, and 72 h at the respective incubation temperatures. For both cell lines, media (MDA-MB-231: DMEM, Pen-Strep and hFOB 1.19: DMEM, F-12, G418) were used with control groups. AlamarBlue® assay was utilized to determine cell proliferation; for this, 10% of AlamarBlue® solution in PBS was prepared. Finally, media was removed from the 96 well plates, 100 μL of 10% AlamarBlue® solution was added, and the cells were incubated for 4 h at the conditions previously set forth herein. After the AlamarBlue® assay, fluorescence (λexc=560 nm, m=590 nm) was evaluated employing an Infinite M200 PRO Tecan Microplate Reader. Live cells were assessed comparing viability of the control group (100%) with cells treated with the ZOLE solutions. The nonlinear regression method using Graph Pad Prism 8 was applied to fit the dose-response curves (% cell live vs concentration) and determined the IC50 values for ZOLE.
(§3) The percentage of relative cell live (% RCL) for ZOLE (control) and nano-Ca@ZOLE (experimental) were investigated at selected concentrations (1.9, 3.8, 7.5, and 15 μM) in both cell lines. Treatments at these concentrations were carried out at 24, 48, and 72 h for ZOLE and nano-Ca@ZOLE. The cell seeding and AlamarBlue® assay were completed as described above for IC50 determination in both cell lines. Graph Pad Prism 8 was utilized to plot the % RCL found at concentrations of 1.9, 3.8, 7.5, and 15 μM after 24, 48, and 72 h of treatment. All experiments were performed in triplicates and the data was statistically treated using mean, standard deviation, and the coefficient of variation percentage (% CV).
In this Example, the human breast cancer MDA-MB-231 and the osteoblast-like hFOB 1.19 cell lines were selected to assess cytotoxicity effects of nano-Ca@ZOLE nanocrystals. […] While, the immortalized human fetal hFOB 1.19 cell line is a homogeneous model that allows the study of osteoblast differentiation, these cells were employed to imitate the normal human bone microenvironment. To determine the IC50 values against MDA-MB-231 and hFOB 1.19 cell lines, concentrations of 0-200 μM of ZOLE were employed.

[5] = test system: normal osteoblast-like hFOB 1.19 cell line; experiment: AlamarBlue cytotoxicity, ZOLE and nano-Ca@ZOLE, hFOB 1.19; type: cell-based, human; conditions: for IC50: Homo sapiens
Method: as §1, §2, §3
In this Example, the human breast cancer MDA-MB-231 and the osteoblast-like hFOB 1.19 cell lines were selected to assess cytotoxicity effects of nano-Ca@ZOLE nanocrystals. […]

O=P(O)(O)C(O)(Cn1ccnc1)P(=O)(O)O [ZOLE, zoledronic acid]
time to reach maximum dissolution ([1]; PBS pH 7.4): 30 min | dissolution / equilibrium solubility (maximum ZOLE released) ([1]; PBS pH 7.4, 37 °C): 100% | time to reach maximum dissolution ([2]; FaSSGF pH 1.6): 3 h | dissolution / equilibrium solubility (maximum ZOLE released) ([2]; FaSSGF pH 1.6, 37 °C): 100% | time to reach maximum binding to HA ([3]; PBS pH 7.4): 8 days | maximum binding to HA ([3]; PBS pH 7.4, 37 °C, 0-11 days): 82% | bound to HA ([3]; PBS pH 7.4, 37 °C, 1 day (24 h)): 15% | % RCL (relative cell live) ([4]; 1.9 μM, time not stated): ~100% | % RCL ([4]; 3.8 μM, time not stated): ~100% | % RCL ([4]; 15 μM, 48 h): 80±2% | % RCL ([4]; 15 μM, 72 h): 58±2% | IC50 ([4]; 24 h): > 200 µM | IC50 ([4]; 48 h): > 200 µM | IC50 ([4]; 72 h): 35 µM | % RCL / cell death ([5]; 1.9-15 μM, 24, 48, 72 h): no significant cell death | IC50 ([5]; 24 h): > 200 µM | IC50 ([5]; 48 h): 86 ± 3 µM | IC50 ([5]; 72 h): 49 ± 4 µM
